Laboratory results published in ChEMBL document CHEMBL3244160, “Novel arabinofuranosyl derivatives of cytosine resistant to enzymatic deamination and possessing potent antitumor activity” (J Med Chem, 1978).

Legend:
HeLa = experiment: Cytotoxicity against human HeLa cells assessed as growth inhibition; assay type: functional
L1210 [1] = experiment: Cytotoxicity against mouse L1210 cells assessed as growth inhibition; assay type: functional
L1210 [2] = experiment: Antitumor activity against mouse L1210 cells allografted in DBA/2 HaDD mouse assessed as survival at 75 mg/kg, ip bid administered for 2 days (reference value: 8.7 days); assay type: functional; conditions: route intraperitoneal
[3] = Stability of the compound in presence of CR/dCR deaminase; assay type: ADME
L1210 [4] = experiment: Antitumor activity against mouse L1210 cells allografted in DBA/2 HaDD mouse assessed as survival at 40 mg/kg, ip bid administered for 2 days (reference value: 8.7 days); assay type: functional; conditions: route intraperitoneal
MOLT-4 = experiment: Cytotoxicity against human MOLT4F cells assessed as growth inhibition; assay type: functional

| Compound | GI50 (HeLa) [µM] | GI50 (L1210 [1]) [nM] | Survival (L1210 [2]) [days] | Stability [3] | Survival (L1210 [4]) [days] | GI50 (MOLT-4) [nM] |
| --- | --- | --- | --- | --- | --- | --- |
| Nc1ccn([C@@H]2O[C@H](CO)[C@@H](O)[C@@H]2N)c(=O)n1 | 30 | 4000 | >120 | Stable |  |  |
| [N-]=[N+]=N[C@H]1[C@H](O)[C@@H](CO)O[C@H]1n1ccc(N)nc1=O [CYTARAZID] | 0.2 | 600 |  | Stable | >120 | 70 |
